Like-named read-outs stand apart in the source and are kept apart here.
What was measured:
A2780 cells = experiment: In-vitro cell proliferation assay (SRB), A2780 cells; assay type: cell-based; details: Homo sapiens, A2780, 72 h, A2780 cells, 72 hours, read-out: A2780 IC50
Outline: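 Proliferation is assessed by sulforhodamine B staining following a 72-hour incubation with compound dilutions containing 0.1% DMSO.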

NAMPT = target: T1, NAMPT (Homo sapiens, UniProt P43490); experiment: Biochemical inhibition assay: NAMPT enzymatic reaction, NMN quantified by mass spectrometry; details: read-out: Biochem IC50
T1 construct: His tag; host or cells: E. coli
Outline: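 Inhibition of E. coli-expressed His-tagged human NAMPT, measured as NMN formation by mass spectrometry after a 30 min room-temperature reaction containing 1 μM NAM, 100 μM PRPP and 2.5 mM ATP.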

T1 sequence (P43490 whole entry): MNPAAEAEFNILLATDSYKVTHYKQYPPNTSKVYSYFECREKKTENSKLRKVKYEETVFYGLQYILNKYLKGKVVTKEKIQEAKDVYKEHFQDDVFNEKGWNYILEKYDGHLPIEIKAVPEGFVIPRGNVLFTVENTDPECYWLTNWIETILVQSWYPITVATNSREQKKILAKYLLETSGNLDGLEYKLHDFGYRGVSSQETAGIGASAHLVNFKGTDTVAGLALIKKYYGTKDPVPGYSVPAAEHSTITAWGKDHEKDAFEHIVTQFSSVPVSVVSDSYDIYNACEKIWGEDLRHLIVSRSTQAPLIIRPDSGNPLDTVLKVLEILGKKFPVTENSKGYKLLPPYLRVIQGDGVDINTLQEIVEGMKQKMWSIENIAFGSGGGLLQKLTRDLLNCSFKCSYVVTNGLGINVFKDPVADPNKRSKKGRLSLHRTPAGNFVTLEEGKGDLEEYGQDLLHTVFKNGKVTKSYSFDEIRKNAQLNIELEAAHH

SMILES	IC50 (A2780 cells; SRB) [nM]	IC50 (NAMPT; NAMPT enzymatic reaction) [nM]	IC50 (NAMPT; NAMPT enzymatic assay) [nM]	IC50 (A2780 cells; SRB assay) [nM]
O=C(NCc1ccc(S(=O)(=O)c2ccc(Cl)cc2)cc1)c1cnc2[nH]ncc2c1 [N-({4-[(4-chlorobenzene)sulfonyl]phenyl}methyl)-1H-pyrazolo[3,4-b]pyridine-5-carboxamide]	22	28.8		
O=C(NCc1ccc(S(=O)(=O)c2cnc3ccc(Cl)cn23)cc1)c1cc2cnccc2[nH]1 [N-[(4-{6-chloroimidazo[1,2-a]pyridine-3-sulfonyl}phenyl)methyl]-1H-pyrrolo[3,2-c]pyridine-2-carboxamide]	1.4		13.2	
COc1cccc(Cl)c1S(=O)(=O)c1ccc(CNC(=O)c2ccc3nccn3c2)cc1 [N-({4-[(2-chloro-6-methoxybenzene)sulfonyl]phenyl}methyl)imidazo[1,2-a]pyridine-6-carboxamide]	25.8	20.2		
CNS(=O)(=O)c1ccccc1S(=O)(=O)c1ccc(CNC(=O)c2cnc3nccn3c2)cc1	1000 to 10000		30.4	
O=C(NCc1ccc(S(=O)(=O)c2cnc3ccc(Cl)cn23)cc1)c1cnc2[nH]ncc2c1 [N-[(4-{6-chloroimidazo[1,2-a]pyridine-3-sulfonyl}phenyl)methyl]-1H-pyrazolo[3,4-b]pyridine-5-carboxamide]	0.8		3.3	
COc1ccc(S(=O)(=O)c2ccc(CNC(=O)c3cnc4[nH]ncc4c3)cc2)c(OC)n1 [N-{[4-(2,6-dimethoxypyridine-3-sulfonyl)phenyl]methyl}-1H-pyrazolo[3,4-b]pyridine-5-carboxamide]	2		30.7	
O=C(NCc1ccc(S(=O)(=O)c2cc(F)cc(OCC(F)(F)F)c2)cc1)c1cnc2[nH]ncc2c1 [N-[(4-{[3-fluoro-5-(2,2,2-trifluoroethoxy)benzene]sulfonyl}phenyl)methyl]-1H-pyrazolo[3,4-b]pyridine-5-carboxamide]	4.82		8	
CCNC(=O)c1ccc(S(=O)(=O)c2ccc(CNC(=O)c3cnc4nccn4c3)cc2)cc1	87.8		22.6	
COc1ccc(S(=O)(=O)c2ccc(CNC(=O)c3cc4ccncc4s3)cc2)cc1OC [N-({4-[(3,4-dimethoxybenzene)sulfonyl]phenyl}methyl)thieno[2,3-c]pyridine-2-carboxamide]		3		0.9
CCc1ccc(S(=O)(=O)c2ccc(CNC(=O)c3cnc4nccn4c3)cc2)cc1	6.2	1.2		
CCOc1cc(S(=O)(=O)c2ccc(CNC(=O)c3cnc4[nH]ncc4c3)cc2)ccc1F [N-({4-[(3-ethoxy-4-fluorobenzene)sulfonyl]phenyl}methyl)-1H-pyrazolo[3,4-b]pyridine-5-carboxamide]	12	26.1		
Cc1cc(Cl)cnc1S(=O)(=O)c1ccc(CNC(=O)c2ccc3nccn3c2)cc1 [N-{[4-(5-chloro-3-methylpyridine-2-sulfonyl)phenyl]methyl}imidazo[1,2-a]pyridine-6-carboxamide]	8		18.8	
O=C(NCc1ccc(S(=O)(=O)c2cccc(C(F)(F)F)c2Cl)cc1)c1cnc2nccn2c1	24.6		2.4	
O=C(NCc1ccc(S(=O)(=O)c2ccc(Cl)c(F)c2)cc1)c1cc2cnccc2[nH]1 [N-({4-[(4-chloro-3-fluorobenzene)sulfonyl]phenyl}methyl)-1H-pyrrolo[3,2-c]pyridine-2-carboxamide]		8		13
Cc1ccccc1S(=O)(=O)c1ccc(CNC(=O)c2cc3ccncc3o2)cc1 [N-({4-[(2-methylbenzene)sulfonyl]phenyl}methyl)furo[2,3-c]pyridine-2-carboxamide]	43.3	15.2		
O=C(NCc1ccc(S(=O)(=O)c2ccc(F)c(C(F)(F)F)c2)cc1)c1ccc2nccn2c1	1.7		4	
Cc1ccc(S(=O)(=O)c2ccc(CNC(=O)c3cc4cnccc4[nH]3)cc2)c(F)c1 [N-({4-[(2-fluoro-4-methylbenzene)sulfonyl]phenyl}methyl)-1H-pyrrolo[3,2-c]pyridine-2-carboxamide]		11		21
CCCOc1ccc(S(=O)(=O)c2ccc(CNC(=O)c3cc4ccncc4o3)cc2)c(C)c1	59.6	22.5		
CCNC(=O)c1cccc(S(=O)(=O)c2ccc(CNC(=O)c3cc4ccncc4o3)cc2)c1	6.4		6	
CCCCOc1ccc(Cl)cc1S(=O)(=O)c1ccc(CNC(=O)c2cc3ccncc3s2)cc1	10	7.3		
O=C(NCc1ccc(S(=O)(=O)c2ccc3ncccc3c2)cc1)c1cc2ccncc2o1 [N-{[4-(quinoline-6-sulfonyl)phenyl]methyl}furo[2,3-c]pyridine-2-carboxamide]	5		7.3	
CCOc1ccc(Cl)cc1S(=O)(=O)c1ccc(CNC(=O)c2cnc3nccn3c2)cc1	3.3	1.9		
COc1cccc(S(=O)(=O)c2ccc(CNC(=O)c3cnc4nccn4c3)cc2)c1OC	77.6	17.6		

SMILES	IC50 (A2780 cells; SRB) [nM]	IC50 (NAMPT; NAMPT enzymatic reaction) [nM]	IC50 (NAMPT; NAMPT enzymatic assay) [nM]	IC50 (A2780 cells; SRB assay) [nM]
Cn1ncc(S(=O)(=O)c2ccc(CNC(=O)c3cnc4[nH]ncc4c3)cc2)c1C(F)(F)F [N-({4-[1-methyl-5-(trifluoromethyl)-1H-pyrazole-4-sulfonyl]phenyl}methyl)-1H-pyrazolo[3,4-b]pyridine-5-carboxamide]	43.4		53.4	
Cc1cc(S(=O)(=O)c2ccc(CNC(=O)c3cc4ccncc4s3)cc2)c(C)cc1F [N-({4-[(4-fluoro-2,5-dimethylbenzene)sulfonyl]phenyl}methyl)thieno[2,3-c]pyridine-2-carboxamide]	13.6	4.2		
COc1cc(F)c(F)cc1S(=O)(=O)c1ccc(CNC(=O)c2cc3ccncc3s2)cc1 [N-({4-[(4,5-difluoro-2-methoxybenzene)sulfonyl]phenyl}methyl)thieno[2,3-c]pyridine-2-carboxamide]		5		2.9
Cc1cc(C)c(S(=O)(=O)c2ccc(CNC(=O)c3cnc4nccn4c3)cc2)c(C)c1	100 to 1000	28.8		
O=C(NCc1ccc(S(=O)(=O)c2cccnc2)cc1)c1cnc2nccn2c1 [N-{[4-(pyridine-3-sulfonyl)phenyl]methyl}imidazo[1,2-a]pyrimidine-6-carboxamide]	100 to 1000		5.9	
Cc1cccc(S(=O)(=O)c2ccc(CNC(=O)c3cc4ccncc4o3)cc2)c1C	8	51.6		
CCCCOc1ccc(S(=O)(=O)c2ccc(CNC(=O)c3cnc4[nH]ncc4c3)cc2)c(C)c1 [N-({4-[(4-butoxy-2-methylbenzene)sulfonyl]phenyl}methyl)-1H-pyrazolo[3,4-b]pyridine-5-carboxamide]	68.8	70.9		
Cc1nc(C)c(S(=O)(=O)c2ccc(CNC(=O)c3cnc4[nH]ncc4c3)cc2)s1 [N-{[4-(dimethyl-1,3-thiazole-5-sulfonyl)phenyl]methyl}-1H-pyrazolo[3,4-b]pyridine-5-carboxamide]	16.4		38.6	
COc1ccc(C(C)C)cc1S(=O)(=O)c1ccc(CNC(=O)c2cc3ccncc3o2)cc1	12.4		15.4	
CCc1ccccc1S(=O)(=O)c1ccc(CNC(=O)c2ccc3nccn3c2)cc1 [N-({4-[(2-ethylbenzene)sulfonyl]phenyl}methyl)imidazo[1,2-a]pyridine-6-carboxamide]	12.9	30.2		
CC(C)COc1cc(F)cc(S(=O)(=O)c2ccc(CNC(=O)c3cc4ccncc4s3)cc2)c1	7.5		4.8	
COc1c(C)cc(S(=O)(=O)c2ccc(CNC(=O)c3cc4ccncc4s3)cc2)cc1C	0.9	9.8		
O=C(NCc1ccc(S(=O)(=O)c2cccc(C(=O)N3CCOCC3)c2)cc1)c1cnc2[nH]ncc2c1	100 to 1000		124	
COc1cc(C)c(S(=O)(=O)c2ccc(CNC(=O)c3ccc4nccn4c3)cc2)cc1C	6	28.1		
O=C(NCc1ccc(S(=O)(=O)c2ccccc2)cc1)c1cc(-c2cccnc2)no1 [N-{[4-(benzenesulfonyl)phenyl]methyl}-3-(pyridin-3-yl)-1,2-oxazole-5-carboxamide]		33		> 30000
Cc1ccc(F)cc1S(=O)(=O)c1ccc(CNC(=O)c2cc3ccncc3o2)cc1	24.9	14.3		
O=C(NCc1ccc(S(=O)(=O)c2cnn(-c3cccc(Cl)c3)c2)cc1)c1cnc2[nH]ncc2c1 [N-({4-[1-(3-chlorophenyl)-1H-pyrazole-4-sulfonyl]phenyl}methyl)-1H-pyrazolo[3,4-b]pyridine-5-carboxamide]	55.6		28.2	
CCc1ccccc1S(=O)(=O)c1ccc(CNC(=O)c2cc3cnccc3[nH]2)cc1 [N-({4-[(2-ethylbenzene)sulfonyl]phenyl}methyl)-1H-pyrrolo[3,2-c]pyridine-2-carboxamide]		5		3
O=C(NCc1ccc(S(=O)(=O)c2ccc(Cl)c(C(F)(F)F)c2)cc1)c1cnc2nccn2c1	4.3		2.8	
CCOc1ccccc1S(=O)(=O)c1ccc(CNC(=O)c2cnc3nccn3c2)cc1	7.1	1		
CS(=O)(=O)c1ccc(S(=O)(=O)c2ccc(CNC(=O)c3ccc4nccn4c3)cc2)cc1 [N-({4-[(4-methanesulfonylbenzene)sulfonyl]phenyl}methyl)imidazo[1,2-a]pyridine-6-carboxamide]	24.7	105		
CCCOc1cccc(F)c1S(=O)(=O)c1ccc(CNC(=O)c2cc3ccncc3o2)cc1	14.2	13.3		
COc1cc(F)cc(S(=O)(=O)c2ccc(CNC(=O)c3cc4ccncc4o3)cc2)c1 [N-({4-[(3-fluoro-5-methoxybenzene)sulfonyl]phenyl}methyl)furo[2,3-c]pyridine-2-carboxamide]	3.3	17.4		
